Measurements as given in patent US10017509B2, “Macrocylic pyrimidine derivatives” (Janssen Pharmaceutica NV, priority 2014, dated 2018).

Columns and labels:
EF2K [1] = biological target: T1, EF2K (Homo sapiens, UniProt O00418); experiment: EF2K cell-based assay (P-EF2 AlphaLISA, 2-deoxyglucose stimulated MCF10A cells); details: 2.5 mM 2-deoxyglucose stimulated, P-EF2 Thr56, pIC50 = -log IC50 (M); for IC50: read-out: eEF2K_C_PThr56 pIC50 (converted)
T1 construct: host or cells: LN-229 cell lysate
T1 sequence (O00418 1-725): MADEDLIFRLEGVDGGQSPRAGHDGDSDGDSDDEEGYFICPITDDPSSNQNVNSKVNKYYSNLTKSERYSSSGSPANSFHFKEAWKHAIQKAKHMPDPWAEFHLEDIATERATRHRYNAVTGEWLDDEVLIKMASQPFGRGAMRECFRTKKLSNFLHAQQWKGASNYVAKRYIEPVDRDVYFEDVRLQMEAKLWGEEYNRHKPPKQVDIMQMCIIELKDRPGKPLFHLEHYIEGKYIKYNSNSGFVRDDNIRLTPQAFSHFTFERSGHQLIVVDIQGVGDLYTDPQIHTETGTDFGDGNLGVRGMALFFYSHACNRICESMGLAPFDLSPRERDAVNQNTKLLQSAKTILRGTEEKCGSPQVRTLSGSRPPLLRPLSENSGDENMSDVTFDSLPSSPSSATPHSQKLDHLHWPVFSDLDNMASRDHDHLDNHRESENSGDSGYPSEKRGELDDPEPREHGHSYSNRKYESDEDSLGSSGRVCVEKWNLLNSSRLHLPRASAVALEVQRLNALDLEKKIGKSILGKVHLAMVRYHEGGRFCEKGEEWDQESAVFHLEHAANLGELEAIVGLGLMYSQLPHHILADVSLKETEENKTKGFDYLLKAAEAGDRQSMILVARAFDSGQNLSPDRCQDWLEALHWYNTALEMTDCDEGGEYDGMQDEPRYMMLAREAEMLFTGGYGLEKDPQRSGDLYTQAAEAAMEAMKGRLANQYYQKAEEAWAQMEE
How it was run: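 MCF10A cells, after 24 h culture, treated 1 h with compound then stimulated 4 h with 2.5 mM 2-deoxyglucose to activate AMPK. Lysates in M-PER with protease/phosphatase inhibitors assayed for P-EF2 by AlphaLISA; pIC50 = −log IC50 (M).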

EF2K [2] = biological target: T1, EF2K; experiment: Biochemical EF2K lysate-based kinase assay (AlphaLISA p-eEF2 Thr56); details: pIC50 = -log IC50 (M), read-out: eEF2K_C_alphalisa pIC50 (converted)
How it was run: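 LN-229 glioblastoma lysate supplied both EF2K and eEF2 substrate; compound incubated 15 min at room temperature in pH 6.6 buffer with 10 mM Mg2+ and 10 mM ATP. EDTA-stopped; phospho-eEF2 Thr56 quantified by AlphaLISA sandwich, final read after overnight. Values as pIC50.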

[3] = biological target: Vps34 (PIK3C3 lipid kinase) (Homo sapiens, UniProt Q8NEB9); experiment: Biochemical Vps34 lipid kinase assay (ADP-Glo); details: for IC50: serial half-log dilution 10 μM to 0.3 nM, pIC50 = -log IC50 (M); for remaining activity at 1 µM: 1 h, read-out: VPS34_1microM_% of cntrl; for remaining activity at 1 µM / VPS34_1microM_% of cntrl: single dose 1 μM compound, residual activity compared to control (DMSO)
How it was run: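 ADP-Glo luminescence assay of PIK3C3 (7.6 nM) with 50 µM substrate and 20 µM ATP (apparent Km) in HEPES pH 7.5, 100 mM NaCl, 3 mM MnCl2, CHAPS, DTT; 60 min, 30 °C. Single dose 1 µM (residual activity vs DMSO) or half-log series 10 µM-0.3 nM giving pIC50.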

Chain of Vps34 (PIK3C3 lipid kinase) (Q8NEB9 whole entry, species assumed): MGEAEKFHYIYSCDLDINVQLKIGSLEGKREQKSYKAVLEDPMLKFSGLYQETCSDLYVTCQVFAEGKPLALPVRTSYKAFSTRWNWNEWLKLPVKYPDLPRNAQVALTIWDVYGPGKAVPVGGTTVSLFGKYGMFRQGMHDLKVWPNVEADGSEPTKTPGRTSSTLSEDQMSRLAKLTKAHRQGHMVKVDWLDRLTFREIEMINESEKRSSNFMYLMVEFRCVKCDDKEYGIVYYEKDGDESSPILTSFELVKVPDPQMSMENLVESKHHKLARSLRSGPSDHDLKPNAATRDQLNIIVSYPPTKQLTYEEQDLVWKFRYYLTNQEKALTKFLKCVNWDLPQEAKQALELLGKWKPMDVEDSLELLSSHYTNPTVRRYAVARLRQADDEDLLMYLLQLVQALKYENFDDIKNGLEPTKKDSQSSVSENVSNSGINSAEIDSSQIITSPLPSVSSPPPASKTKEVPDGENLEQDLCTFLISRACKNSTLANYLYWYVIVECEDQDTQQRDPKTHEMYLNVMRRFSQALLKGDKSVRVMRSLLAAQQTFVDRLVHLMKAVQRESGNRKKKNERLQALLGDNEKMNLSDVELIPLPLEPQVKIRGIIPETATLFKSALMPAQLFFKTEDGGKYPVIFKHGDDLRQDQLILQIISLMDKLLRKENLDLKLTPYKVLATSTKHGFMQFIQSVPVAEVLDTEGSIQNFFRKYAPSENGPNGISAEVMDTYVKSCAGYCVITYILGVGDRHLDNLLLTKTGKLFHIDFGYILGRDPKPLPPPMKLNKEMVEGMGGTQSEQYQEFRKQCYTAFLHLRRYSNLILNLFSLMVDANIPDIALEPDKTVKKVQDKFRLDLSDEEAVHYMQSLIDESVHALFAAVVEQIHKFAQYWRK

IC50 (EF2K [1]) | IC50 (EF2K [2]) | IC50 [3] | remaining activity at 1 µM [3] | eEF2K_C_PThr56 pIC50 (EF2K [1]) | VPS34_1microM_% of cntrl [3] | SMILES
2.19e-07 M | 7.94e-09 M | 1.66e-07 M | – | – | – | C=CCN1CCNC(=O)CN2CCN(CC2)Cc2cccc(c2)Nc2nccc(n2)-c2ccc(nc2)C1 [Compound 45]
2.75e-06 M | 1.78e-07 M | 6.46e-08 M | 6.55% | – | – | CC1CN2CCN1Cc1cccc(c1)Nc1nccc(n1)-c1ccc(nc1)NCCCNC(=O)C2 (stereo not shown) [Compound 60]
1.29e-05 M | 3.63e-07 M | 2.88e-07 M | 10.8% | – | – | CN1CCCN(C)c2ccc(cn2)-c2ccnc(n2)Nc2ccc(C(N)=O)c(c2)CN2CCN(CC2)CC1=O [Compound 10]
> 3.02e-05 M | 2.4e-06 M | 1.51e-06 M | – | – | – | CN1CCCN(C)c2ccc(cn2)-c2ccnc(n2)Nc2cccc(c2)CN2CCN(CC1=O)CC2COCCN1CCOCC1 (single isomer, unassigned) [Compound 99]
2.45e-05 M | 6.61e-07 M | 2.51e-07 M | 17.4% | – | – | CN1CCCN(C)c2ccc(cn2)-c2ccnc(n2)Nc2cc(F)cc(c2)CN2CCN(CC2)CC1=O [Compound 6]
> 3.02e-05 M | 1.78e-06 M | 6.92e-08 M | 3.25% | – | – | CN1CCCN(C)c2ccc(cn2)-c2ccnc(n2)Nc2cccc(c2)CN2CCN(CC2)C(=O)C1 [Compound 83]
1.66e-05 M | 3.02e-07 M | – | 36.3% | – | – | CN1CCN(CCOCC2CN3CCN2Cc2cccc(c2)Nc2nccc(n2)-c2ccc(nc2)N(C)CCCN(C)C(=O)C3)CC1 (stereo not shown) [Compound 106]
> 3.02e-05 M | 2.4e-07 M | 3.24e-07 M | 16.4% | – | – | CN1CCCN(C)c2ccc(cn2)-c2ccnc(n2)Nc2cccc(c2)CN2CCN(CC1=O)C(CCO)C2 (stereo not shown) [Compound 63]
1.86e-05 M | 1.95e-07 M | 6.76e-07 M | 28.3% | – | – | CN1CCCN(C)c2ccc(cn2)-c2ccnc(n2)Nc2cccc(c2)CN2CCN(CC1=O)CC2COCCO (stereo not shown) [Compound 103]
5.62e-06 M | 1.66e-07 M | 3.31e-07 M | 10.8% | – | – | O=C1NCCCNc2ccc(cn2)-c2ccnc(n2)Nc2cccc(c2)CN2CCN(CC2)C1CO (stereo not shown) [Compound 65]
2.63e-05 M | 7.24e-07 M | – | 64.6% | – | – | CN1CCCN(C)c2ccc(cn2)-c2ccnc(n2)Nc2cccc(c2)CN2CCN(CC2)C(c2ccccc2)C1=O (stereo not shown) [Compound 64]
– | 3.39e-08 M | 2.75e-07 M | – | <4.52 | 13.15 % of cntrl | CN1CCCN(C)c2ccc(cn2)-c2ccnc(n2)Nc2cccc(c2)CN2CCN(CC1=O)CC2CO (single isomer, unassigned) [Compound 53]
> 3.02e-05 M | 4.57e-07 M | – | 33.3% | – | – | CN1CCCN(C)c2ccc(cn2)-c2ccnc(n2)Nc2ccc(C(=O)O)c(c2)CN2CCN(CC2)CC1=O [Compound 11]
> 3.02e-05 M | 1.45e-07 M | 8.91e-07 M | – | – | – | COC(=O)C1CN2CCN1Cc1cccc(c1)Nc1nccc(n1)-c1ccc(nc1)N(C)CCCN(C)C(=O)C2 (stereo not shown) [Compound 55]
7.59e-06 M | 7.08e-08 M | 1.05e-07 M | 3.37% | – | – | N#Cc1ccc2cc1CN1CCN(CC1)CC(=O)NCCCNc1ccc(cn1)-c1ccnc(n1)N2 [Compound 14]
> 3.02e-05 M | 2.04e-06 M | 3.63e-07 M | 15.9% | – | – | O=C1CN2CCN(CC2)Cc2cc(ccc2C(=O)O)Nc2nccc(n2)-c2ccc(nc2)NCCCN1 [Compound 16]
> 3.02e-05 M | 1.32e-06 M | 4.47e-08 M | – | – | 6.78 % of cntrl | CC1CN2CCN1Cc1cccc(c1)Nc1nccc(n1)-c1ccc(nc1)NCCCNC(=O)C2 (single isomer, unassigned) [Compound 61]

IC50 (EF2K [1]) | IC50 (EF2K [2]) | IC50 [3] | remaining activity at 1 µM [3] | eEF2K_C_PThr56 pIC50 (EF2K [1]) | VPS34_1microM_% of cntrl [3] | SMILES
> 3.02e-05 M | 8.91e-08 M | – | 38.3% | – | – | CN1CCCN(C)c2ccc(cc2)-c2ccnc(n2)Nc2cccc(c2)CN2CCN(CC1=O)C(C(=O)OCc1ccccc1)C2 (stereo not shown) [Compound 92]
3.09e-06 M | 1.2e-06 M | – | 30.7% | – | – | O=C1CN2CCN(CC2)Cc2cccc(c2)Nc2nccc(n2)-c2ccc(nc2)CN(CC2CCOCC2)CCN1 [Compound 39]
> 3.02e-05 M | 3.72e-06 M | 3.55e-07 M | 19.2% | – | – | CN1CCCNc2ccc(cn2)-c2ccnc(n2)Nc2cccc(c2)CN2CCN(CC1=O)C(=O)C2 [Compound 127]
> 3.02e-05 M | 1.74e-07 M | 7.59e-08 M | 4.95% | – | – | NC(=O)C1CN2CCN1CC(=O)NCCCNc1ccc(cn1)-c1ccnc(n1)Nc1cccc(c1)C2 (stereo not shown) [Compound 126]
2.75e-05 M | 1.48e-07 M | – | 33.9% | – | – | CN1CCCN(C)c2ccc(cn2)-c2ccnc(n2)Nc2cccc(c2)CN2CCN(CC1=O)CC2COCCN1CCOCC1 (stereo not shown) [Compound 98]
> 3.02e-05 M | 7.94e-06 M | 1.41e-07 M | 8.1% | – | – | O=C1CN2CCN(CCc3cccc(c3)Nc3nccc(n3)-c3ccc(nc3)NCCCN1)CC2 [Compound 118]
> 3.02e-05 M | 1.82e-06 M | 1.62e-07 M | 8.85% | – | – | CN1CCCCN(C)c2ccc(cn2)-c2ccnc(n2)Nc2cccc(c2)CN2CCN(CC2)CC1=O [Compound 20]
> 1e-05 M | 2.57e-06 M | 1.48e-07 M | 14.6% | – | – | CS(=O)(=O)N1CCNC(=O)CN2CCN(CC2)Cc2cccc(c2)Nc2nccc(n2)-c2ccc(nc2)C1 [Compound 133]
> 3.02e-05 M | 1.82e-06 M | 4.07e-07 M | 19.6% | – | – | CN1CCN(C)c2ccc(cn2)-c2ccnc(n2)Nc2cccc(c2)CN2CCN(C)C(CC1=O)C2 (stereo not shown) [Compound 73]
> 3.02e-05 M | 7.24e-06 M | 6.17e-06 M | 17.3% | – | – | CC(C)N1CCCNc2ccc(cn2)-c2ccnc(n2)Nc2cccc(c2)CN2CCN(CC2)CC1=O [Compound 22]
5.5e-06 M | 1.74e-07 M | – | – | – | 63.22 % of cntrl | O=C1CN2CCN(CC2)Cc2cccc(c2)Nc2nccc(n2)-c2ccc(nc2)N2CCCC2CN1 (stereo not shown) [Compound 80]
~8.13e-07 M | 1.35e-07 M | 2.24e-07 M | 17.7% | – | – | O=C1CN2CCN(CC2)Cc2cccc(c2)Nc2nccc(n2)-c2ccc(nc2)CN(CC2CCCO2)CCN1 (stereo not shown) [Compound 40]
~7.24e-06 M | 5.25e-07 M | 8.32e-07 M | – | – | – | O=C1CN2CCN(CC2)Cc2cccc(c2)Nc2nccc(n2)-c2ccc(nc2)CNCCN1 [Compound 34]
3.98e-06 M | 6.92e-08 M | 1.91e-07 M | 7.12% | – | – | O=C1CN2CCN(CC2)Cc2cccc(c2)Nc2nccc(n2)-c2ccc(nc2)CN(C(=O)C(F)(F)F)CCN1 [Compound 132]
> 3.02e-05 M | 1.38e-05 M | 1.58e-07 M | 15.1% | – | – | Cc1cc2cc(c1)Nc1nccc(n1)-c1ccc(nc1)NCCCNC(=O)CN1CCN(CC1)C2 [Compound 7]
> 3.02e-05 M | 5.5e-06 M | 4.27e-08 M | – | – | 3.34 % of cntrl | O=C1CN2CCN(Cc3cccc(c3)Nc3nccc(n3)-c3ccc(nc3)NCCCN1)C(CO)C2 (single isomer, unassigned) [Compound 48]
